One data set is described as follows: metabolism in rats. The format is in vivo.
Another data set in a line: toxicological studies. The format is in vivo. To be noted: animals and humans.

The structures appear in SMILES notation.

Regarding `CCCCCCCCCCCC(=O)N[C@@H](CCCN=C(N)N)C(=O)OCC.Cl` [LAE, ethyl ester of the lauramide of the arginine monohydrochloride], the absorption and metabolism result in the data set “metabolism in rats” is “fast absorption and metabolism into naturally-occurring amino acids and the fatty acid lauric acid”. Besides, the toxicity result in “toxicological studies” was “completely harmless to animals and humans”.
